{"source": "ChEMBL document CHEMBL1201862", "about": "“PubChem BioAssay data set” (2004)", "key": {"[1]": {"molecular_target": "T1, Cysteine protease ATG4B (Homo sapiens, UniProt Q9Y4P1)", "T1 sequence (Q9Y4P1 whole entry)": "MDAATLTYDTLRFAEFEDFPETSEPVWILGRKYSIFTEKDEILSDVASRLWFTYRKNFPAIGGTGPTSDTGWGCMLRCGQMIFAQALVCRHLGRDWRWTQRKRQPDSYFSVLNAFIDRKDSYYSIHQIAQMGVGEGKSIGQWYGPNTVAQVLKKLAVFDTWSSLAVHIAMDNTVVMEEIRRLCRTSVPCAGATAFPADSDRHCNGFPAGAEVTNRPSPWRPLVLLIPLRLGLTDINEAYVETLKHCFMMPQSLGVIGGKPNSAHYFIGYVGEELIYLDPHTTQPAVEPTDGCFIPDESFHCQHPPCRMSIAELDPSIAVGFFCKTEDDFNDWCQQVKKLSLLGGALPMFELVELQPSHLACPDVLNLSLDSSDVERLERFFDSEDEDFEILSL", "type": "functional"}, "[2]": {"molecular_target": "Phospholipase A2 (Homo sapiens, UniProt P04054)", "sequence (P04054 whole entry)": "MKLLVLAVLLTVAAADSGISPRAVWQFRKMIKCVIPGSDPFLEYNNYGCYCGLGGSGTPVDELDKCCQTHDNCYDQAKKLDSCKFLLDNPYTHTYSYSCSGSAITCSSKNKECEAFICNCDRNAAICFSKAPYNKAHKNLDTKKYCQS", "type": "functional"}, "[3]": {"molecular_target": "Protein Wnt-3a (Mus musculus, UniProt P27467)", "sequence (P27467 whole entry)": "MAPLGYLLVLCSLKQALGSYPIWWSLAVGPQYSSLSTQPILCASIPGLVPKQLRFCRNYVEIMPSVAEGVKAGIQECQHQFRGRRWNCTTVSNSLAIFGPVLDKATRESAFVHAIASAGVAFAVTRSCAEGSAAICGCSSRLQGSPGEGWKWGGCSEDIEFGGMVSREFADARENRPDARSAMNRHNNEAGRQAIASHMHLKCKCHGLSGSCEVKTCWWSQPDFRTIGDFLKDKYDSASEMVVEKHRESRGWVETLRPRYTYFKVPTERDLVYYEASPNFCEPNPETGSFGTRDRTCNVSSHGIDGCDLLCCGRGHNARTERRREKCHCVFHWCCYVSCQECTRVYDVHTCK", "assay": "antagonism of Wnt3a pathway luciferase reporter – Wnt-LIGHT cells, luminescence, selectivity assay for Gli-SUFU antagonist project, dose response (AID 651570);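 also: Wnt-LIGHT reporter cells stimulated with conditioned medium from Wnt3a-producing cells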", "type": "functional", "settings": "read-out: IC50_Mean"}, "[4]": {"test_system": "CHO", "assay": "CHO cell viability loss, potency – luminescence, cytotoxicity control for TLR9-MyD88 binding inhibitor project, dose response (AID 588339);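 also: CHO cells stably coexpressing TLR9 and MyD88 fusions from primary screen; compound exposure lasted 48 hours before viability readout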", "type": "functional, cell-based, hamster", "settings": "Cricetulus griseus"}, "[5]": {"molecular_target": "Beta Lactamase (Pseudomonas aeruginosa, UniProt Q932Y6)", "sequence (Q932Y6 whole entry)": "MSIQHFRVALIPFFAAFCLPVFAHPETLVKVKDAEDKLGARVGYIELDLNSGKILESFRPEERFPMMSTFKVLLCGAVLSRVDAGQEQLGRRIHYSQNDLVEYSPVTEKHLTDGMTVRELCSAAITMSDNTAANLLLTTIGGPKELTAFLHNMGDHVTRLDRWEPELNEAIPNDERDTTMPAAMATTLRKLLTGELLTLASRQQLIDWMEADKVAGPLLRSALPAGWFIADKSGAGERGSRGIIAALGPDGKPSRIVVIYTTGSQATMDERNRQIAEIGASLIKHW", "assay": "BLA reporter interference, concentration series – BLA reporter cells, FRET fluorescence, artefact control for TLR9-MyD88 binding inhibitor project, dose response (AID 588341);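 also: cell based assay in CHO-K1 cells stably expressing beta-lactamase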", "type": "cell-based"}, "[6]": {"molecular_target": "Beta-2 adrenergic receptor (Homo sapiens, UniProt P07550)", "sequence (P07550 whole entry)": "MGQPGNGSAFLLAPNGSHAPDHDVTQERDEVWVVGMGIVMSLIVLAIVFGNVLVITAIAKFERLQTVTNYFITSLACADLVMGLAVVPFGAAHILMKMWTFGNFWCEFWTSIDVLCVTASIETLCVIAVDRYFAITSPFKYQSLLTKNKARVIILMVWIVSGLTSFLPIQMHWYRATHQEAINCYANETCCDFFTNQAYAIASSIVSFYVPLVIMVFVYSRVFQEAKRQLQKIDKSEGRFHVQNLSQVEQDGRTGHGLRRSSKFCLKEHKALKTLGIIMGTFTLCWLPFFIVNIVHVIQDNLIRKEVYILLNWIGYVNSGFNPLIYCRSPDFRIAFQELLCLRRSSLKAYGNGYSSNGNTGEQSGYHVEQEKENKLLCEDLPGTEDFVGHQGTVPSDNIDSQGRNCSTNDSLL", "assay": "ADRB2 activation measured by internalization – cell-based, FAP fluorogen, flow cytometry, cherry pick 1, dose response (AID 588763)", "type": "functional"}, "[7]": {"molecular_target": "Beta-galactosidase (Escherichia coli, UniProt Q8VNN2)", "sequence (Q8VNN2 whole entry)": "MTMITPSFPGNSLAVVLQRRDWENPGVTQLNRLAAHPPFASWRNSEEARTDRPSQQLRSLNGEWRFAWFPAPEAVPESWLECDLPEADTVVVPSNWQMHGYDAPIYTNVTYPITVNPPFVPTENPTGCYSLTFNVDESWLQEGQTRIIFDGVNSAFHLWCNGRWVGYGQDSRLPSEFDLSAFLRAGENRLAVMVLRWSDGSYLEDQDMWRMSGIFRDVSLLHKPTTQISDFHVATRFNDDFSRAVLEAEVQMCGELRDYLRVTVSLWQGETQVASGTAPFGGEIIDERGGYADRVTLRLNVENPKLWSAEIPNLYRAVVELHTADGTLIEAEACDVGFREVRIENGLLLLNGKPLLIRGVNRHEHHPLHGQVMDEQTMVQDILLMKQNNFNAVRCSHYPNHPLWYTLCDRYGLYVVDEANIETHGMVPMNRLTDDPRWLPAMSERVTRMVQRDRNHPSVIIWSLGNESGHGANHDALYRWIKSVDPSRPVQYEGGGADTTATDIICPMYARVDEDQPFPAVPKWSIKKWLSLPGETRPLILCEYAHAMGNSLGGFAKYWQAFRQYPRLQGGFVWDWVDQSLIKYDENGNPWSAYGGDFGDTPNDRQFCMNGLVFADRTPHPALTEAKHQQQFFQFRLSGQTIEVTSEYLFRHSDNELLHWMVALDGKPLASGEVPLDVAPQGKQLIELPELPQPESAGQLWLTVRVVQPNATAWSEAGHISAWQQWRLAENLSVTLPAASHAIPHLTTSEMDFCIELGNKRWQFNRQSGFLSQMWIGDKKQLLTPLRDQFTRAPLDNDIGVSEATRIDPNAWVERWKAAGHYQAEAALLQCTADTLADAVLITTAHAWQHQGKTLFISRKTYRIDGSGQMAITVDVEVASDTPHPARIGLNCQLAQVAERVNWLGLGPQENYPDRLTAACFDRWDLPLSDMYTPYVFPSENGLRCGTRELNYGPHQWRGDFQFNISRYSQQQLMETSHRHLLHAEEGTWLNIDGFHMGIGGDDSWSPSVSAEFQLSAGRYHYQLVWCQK", "assay": "PubChem AID 485352", "type": "functional"}, "[8]": {"molecular_target": "Type-1 angiotensin II receptor (Homo sapiens, UniProt P30556)", "assay": "antagonism of angiotensin II type 1 receptor – cell-based, uHTS hits, selectivity assay for APJ receptor antagonist project, dose response (AID 463214);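 also: antagonist potency against angiotensin II stimulated AT1 response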", "type": "functional"}, "[9]": {"molecular_target": "Aryl hydrocarbon receptor (Homo sapiens, UniProt P35869)", "sequence (P35869 whole entry)": "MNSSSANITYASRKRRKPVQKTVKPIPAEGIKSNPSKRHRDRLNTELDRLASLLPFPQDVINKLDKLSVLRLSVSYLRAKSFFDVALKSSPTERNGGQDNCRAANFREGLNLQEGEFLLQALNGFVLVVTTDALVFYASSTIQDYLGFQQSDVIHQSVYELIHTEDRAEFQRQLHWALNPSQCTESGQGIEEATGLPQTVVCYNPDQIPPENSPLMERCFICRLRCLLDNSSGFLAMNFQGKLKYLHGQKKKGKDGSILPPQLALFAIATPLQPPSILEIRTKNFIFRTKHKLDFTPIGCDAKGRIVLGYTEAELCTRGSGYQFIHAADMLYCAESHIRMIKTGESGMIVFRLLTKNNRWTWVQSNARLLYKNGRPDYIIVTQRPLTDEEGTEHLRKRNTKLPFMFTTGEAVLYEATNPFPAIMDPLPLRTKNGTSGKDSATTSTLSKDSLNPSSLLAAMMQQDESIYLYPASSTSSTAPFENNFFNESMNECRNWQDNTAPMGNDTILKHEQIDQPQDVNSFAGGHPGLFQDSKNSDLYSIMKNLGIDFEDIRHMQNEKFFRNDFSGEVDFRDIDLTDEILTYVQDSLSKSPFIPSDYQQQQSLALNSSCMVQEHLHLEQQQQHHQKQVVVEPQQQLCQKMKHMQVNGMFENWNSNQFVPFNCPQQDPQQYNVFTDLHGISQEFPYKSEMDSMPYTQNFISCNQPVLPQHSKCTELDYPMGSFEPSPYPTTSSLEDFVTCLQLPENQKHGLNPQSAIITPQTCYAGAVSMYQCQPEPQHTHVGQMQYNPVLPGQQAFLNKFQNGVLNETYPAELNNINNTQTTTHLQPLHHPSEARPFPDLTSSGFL", "settings": "Potency"}, "[10]": {"molecular_target": "Protein disulfide-isomerase (Homo sapiens, UniProt P07237)", "sequence (P07237 whole entry)": "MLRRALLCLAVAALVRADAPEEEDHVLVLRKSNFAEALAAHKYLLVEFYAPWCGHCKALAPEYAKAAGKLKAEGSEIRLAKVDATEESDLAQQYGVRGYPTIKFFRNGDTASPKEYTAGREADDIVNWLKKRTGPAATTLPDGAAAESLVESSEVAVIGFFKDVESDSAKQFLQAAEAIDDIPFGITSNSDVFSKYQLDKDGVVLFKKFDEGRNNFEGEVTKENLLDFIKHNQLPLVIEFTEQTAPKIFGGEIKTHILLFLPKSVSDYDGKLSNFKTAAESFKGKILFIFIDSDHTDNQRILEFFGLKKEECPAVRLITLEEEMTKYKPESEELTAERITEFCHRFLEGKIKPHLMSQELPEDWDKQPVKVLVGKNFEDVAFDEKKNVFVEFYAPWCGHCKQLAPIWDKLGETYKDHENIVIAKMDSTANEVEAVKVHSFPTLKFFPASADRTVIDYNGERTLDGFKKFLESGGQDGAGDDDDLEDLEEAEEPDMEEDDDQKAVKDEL", "assay": "inhibition of PDI-driven insulin aggregation – biochemical, turbidity, absorbance, cherry-picked samples, dose response (AID 602350)", "type": "functional"}, "[11]": {"molecular_target": "Heat shock protein HSP 90-alpha (Homo sapiens, UniProt P07900)", "type": "functional, organism-based"}, "[12]": {"assay": "NIH-3T3 fibroblast cytotoxicity, dose response, cytotoxicity control, cell-based, fluorescence, Alamar Blue, secondary assay (AID 2327);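 also: NIH-3T3 mouse fibroblasts cultured with fluconazole at 8 µg/mL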", "type": "functional"}, "[13]": {"assay": "fluconazole-exposed Candida albicans growth modulators – fluorescence, retest, confirmation (AID 2467)", "type": "functional, cell-based"}, "[14]": {"molecular_target": "Serine/threonine-protein phosphatase (Candida dubliniensis (strain CD36 / CBS 7987 / NCPF 3949 / NRRLY-17841) (Yeast), UniProt B9W6M3)", "sequence (B9W6M3 whole entry)": "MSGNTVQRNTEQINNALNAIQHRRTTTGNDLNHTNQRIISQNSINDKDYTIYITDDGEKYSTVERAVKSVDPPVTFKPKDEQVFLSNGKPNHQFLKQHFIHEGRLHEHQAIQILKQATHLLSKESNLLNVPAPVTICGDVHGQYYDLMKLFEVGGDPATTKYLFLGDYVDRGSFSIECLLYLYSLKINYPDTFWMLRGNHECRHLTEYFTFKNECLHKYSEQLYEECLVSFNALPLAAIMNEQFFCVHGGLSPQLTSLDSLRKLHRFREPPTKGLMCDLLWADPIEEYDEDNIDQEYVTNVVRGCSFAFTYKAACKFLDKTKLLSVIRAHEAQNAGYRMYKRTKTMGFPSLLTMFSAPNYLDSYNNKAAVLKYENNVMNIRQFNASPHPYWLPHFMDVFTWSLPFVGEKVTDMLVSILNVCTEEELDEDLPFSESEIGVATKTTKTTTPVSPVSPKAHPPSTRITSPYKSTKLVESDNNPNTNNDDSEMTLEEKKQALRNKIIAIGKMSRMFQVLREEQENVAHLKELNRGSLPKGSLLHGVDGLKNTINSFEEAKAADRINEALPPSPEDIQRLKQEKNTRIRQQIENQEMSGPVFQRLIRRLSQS", "assay": "blockers of CaCl2-induced CDRE-lacZ signaling – S. cerevisiae, luminescence, secondary, dose response (AID 2388);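 also: yeast reporter cells carrying a calcineurin-responsive lacZ construct stimulated with calcium chloride; luminescent beta-galactosidase reporter signal in whole cells rather than isolated phosphatase activity; potency for inhibition where a drop in reporter signal means calcineurin blockade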", "type": "functional, cell-based"}, "[15]": {"molecular_target": "ATP-dependent molecular chaperone HSP82 (Candida albicans (strain WO-1) (Yeast), UniProt C4YTQ8)", "sequence (C4YTQ8 whole entry)": "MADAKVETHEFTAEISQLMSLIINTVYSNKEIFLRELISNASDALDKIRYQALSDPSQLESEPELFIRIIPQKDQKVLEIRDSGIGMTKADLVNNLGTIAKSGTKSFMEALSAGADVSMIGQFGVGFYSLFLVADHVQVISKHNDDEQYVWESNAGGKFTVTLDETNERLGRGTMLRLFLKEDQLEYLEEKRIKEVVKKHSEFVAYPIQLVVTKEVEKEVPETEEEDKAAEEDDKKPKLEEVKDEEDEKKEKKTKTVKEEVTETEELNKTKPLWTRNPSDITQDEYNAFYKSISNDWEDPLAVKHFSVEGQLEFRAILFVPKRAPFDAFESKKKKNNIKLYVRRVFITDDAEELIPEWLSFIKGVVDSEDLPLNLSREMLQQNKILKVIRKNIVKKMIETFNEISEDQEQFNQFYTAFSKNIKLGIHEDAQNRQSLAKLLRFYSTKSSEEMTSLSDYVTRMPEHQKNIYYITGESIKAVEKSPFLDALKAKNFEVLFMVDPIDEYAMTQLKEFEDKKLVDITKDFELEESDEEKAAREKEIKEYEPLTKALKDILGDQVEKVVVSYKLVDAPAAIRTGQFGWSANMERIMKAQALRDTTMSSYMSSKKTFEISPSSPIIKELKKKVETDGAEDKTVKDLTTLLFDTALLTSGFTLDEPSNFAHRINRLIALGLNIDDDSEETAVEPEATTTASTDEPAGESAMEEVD", "assay": "steroid-induced GRE reporter decrease in yeast – S. cerevisiae, luminescence, Hsp90 inhibitor project, dose response (AID 2400);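 also: beta-galactosidase luminescence from glucocorticoid response element reporter as proxy for Hsp90 function; inhibitor potency where signal loss means Hsp90 inhibition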", "type": "functional, cell-based"}}, "note": "Calls of active or inactive are those of the source."}
{"compound": "CC1(C)C2CCC1(C)C1(C2)NC(=O)c2ccccc2O1", "note": "(stereo not given)", "values": [{"measurement": "IC50", "setting": "[1]", "value": "14.8 µM (active)"}, {"measurement": "IC50", "setting": "[2]", "value": "11 µM (active)"}]}
{"compound": "Cc1cc(Nc2ccc([N+](=O)[O-])cc2)c2ccccc2n1", "values": [{"measurement": "IC50", "setting": "[3]", "value": "14.1 µM (active)"}]}
{"compound": "O=[N+]([O-])c1ccc(-c2ccc(/C=N/Nc3nc(NCc4ccccc4)nc(N4CCOCC4)n3)o2)cc1", "values": [{"measurement": "IC50", "setting": "[4]", "value": "15.9 µM (inactive)"}, {"measurement": "IC50", "setting": "[5]", "value": "4.69 µM (active)"}]}
{"compound": "CCOC(=O)c1ccc(NC(=O)Cc2coc3cc4c(cc23)CCC4)cc1", "values": [{"measurement": "EC50", "setting": "[6]", "value": "7.53 µM (active)"}]}
{"compound": "O=C(CNS(=O)(=O)c1ccccc1)OCC(=O)c1cccc([N+](=O)[O-])c1", "values": [{"measurement": "EC50", "setting": "[7]", "value": "> 40 µM (inactive)"}, {"measurement": "IC50", "setting": "[8]", "value": "38.1 µM (not active)"}]}
{"compound": "CCCCOCC1CO1", "note": "(stereo not given)", "values": [{"measurement": "AC50", "setting": "[9]", "value": "56.2 µM (inconclusive)"}]}
{"compound": "C[C@@H]1O[C@@H](Oc2c(-c3ccc(O)c(O)c3)oc3cc(O)cc(O)c3c2=O)[C@H](O)[C@H](O)[C@H]1O", "values": [{"measurement": "AC50", "setting": "[10]", "value": "5.59 µM (active)"}]}
{"compound": "C=CCc1c(C)c(C#N)c2nc3ccccc3n2c1NCCN(C)C", "values": [{"measurement": "AC50", "setting": "[11]", "value": "4.45 µM (active)"}, {"measurement": "EC50", "setting": "[12]", "value": "> 160 µM (inactive)"}, {"measurement": "EC50", "setting": "[13]", "value": "1.27 µM (active)"}, {"measurement": "EC50", "setting": "[14]", "value": "> 180 µM (inactive)"}, {"measurement": "EC50", "setting": "[15]", "value": "> 150 µM (inactive)"}]}
